Assays:
[1] = test system: Trypanosoma brucei brucei; experiment: Antiprotozoal activity against Trypanosoma brucei brucei GVR35; format: functional
[2] = test system: Leishmania donovani; experiment: Antiprotozoal activity against Leishmania donovani MHOM/ET/L82/LV9; format: functional, organism-based
[3] = test system: Trichomonas vaginalis; experiment: Antiprotozoal activity against Trichomonas vaginalis CMP; format: functional, organism-based

| SMILES | MAC [1] [µM] | IC50 [2] [µM] | IC50 [3] [µM] |
| --- | --- | --- | --- |
| CCCCCCC(=O)Nc1ccc2nccnc2c1Br | >300 | > 300 | > 300 |
| O=C(Nc1ccc2nccnc2c1Br)c1ccc(C(=O)c2ccccc2)cc1 | >300 | > 300 | > 300 |
| c1ccc2c(CNc3ccc4nccnc4c3)ccnc2c1 | >300 | 34 | > 300 |
| CCc1ccc(OCc2ccccc2C(=O)Nc2ccc3nc(-c4ccccc4)c(-c4ccccc4)nc3c2)cc1 | >300 | > 300 | > 300 |
| CCCCCCCCCCCCC(=O)Nc1ccc2nccnc2c1Br | >300 | > 300 | > 300 |
| CCCCCCCCCCCCCCCC(=O)Nc1ccc2nccnc2c1Br | >300 | > 300 | > 300 |
| CCc1ccc(OCc2ccccc2C(=O)Nc2ccc3nccnc3c2)cc1 | 150 | 18.5 | 126 |
| CCc1ccc(OCc2ccccc2C(=O)Nc2ccc3nc(C)c(C)nc3c2)cc1 | 200 | 8.2 | > 300 |
| CCc1ccc(OCc2ccccc2NC(=O)c2ccc3nc(-c4ccccc4)c(-c4ccccc4)nc3c2)cc1 | >300 | > 300 | > 300 |
| c1cnc2cc(NCc3ccc4c(c3)OCO4)ccc2n1 | >300 | 79.5 | > 300 |
| CCn1c2ccccc2c2cc(NC(=O)c3ccc4nc(-c5ccccc5)c(-c5ccccc5)nc4c3)ccc21 | >300 | > 300 | > 300 |
| COc1cc2oc3ccccc3c2cc1NC(=O)c1ccc2nc(-c3ccccc3)c(-c3ccccc3)nc2c1 | >300 | > 300 | > 300 |
| CCc1ccc(OCc2ccccc2NC(=O)c2ccc3nccnc3c2)cc1 | 200 | 18.4 | > 300 |
| CCCCCCC(=O)Nc1ccc2nccnc2c1 | >300 | 117 | > 300 |
| COc1cc2oc3ccccc3c2cc1NC(=O)c1ccc2nccnc2c1 | >300 | > 300 | > 300 |
| CCn1c2ccccc2c2cc(N(C(=O)c3ccc4nc(-c5ccccc5)c(-c5ccccc5)nc4c3)C(=O)c3ccc4nc(-c5ccccc5)c(-c5ccccc5)nc4c3)ccc21 | >300 | > 300 | > 300 |

| SMILES | MAC [1] [µM] | IC50 [2] [µM] | IC50 [3] [µM] |
| --- | --- | --- | --- |
| CCc1ccc(OCc2ccccc2NC(=O)c2ccc3nc(C)cnc3c2)cc1 | >300 | > 300 | > 300 |
| O=C(Nc1cccc2c1oc1ccccc12)c1ccc2nc(-c3ccccc3)c(-c3ccccc3)nc2c1 | >300 | > 300 | > 300 |
| CCc1ccc(OCc2ccccc2NC(=O)c2ccc3nc(C)c(C)nc3c2)cc1 | >300 | > 300 | > 300 |
| CCc1ccc(OCc2ccccc2C(=O)Nc2ccc3nc(C)cnc3c2)cc1 | 200 | 12.5 | > 300 |
| O=[N+]([O-])c1ccc(CNc2ccc3nccnc3c2)cc1 | >300 | > 300 | 191 |
| c1ccc(CNc2ccc3nccnc3c2)cc1 | >300 | 92.4 | 264 |
| CCn1c2ccccc2c2cc(NC(=O)c3ccc4nccnc4c3)ccc21 | 200 | > 300 | > 300 |
| O=C(Nc1ccc2nccnc2c1Br)c1ccc2ccccc2n1 | >300 | > 300 | > 300 |
| Cc1nc2ccc(NC(=O)C34CC5CC(CC(C5)C3)C4)cc2nc1C | >300 | > 300 | > 300 |
| COc1cc2oc3ccccc3c2cc1N(C(=O)c1ccc2nc(-c3ccccc3)c(-c3ccccc3)nc2c1)C(=O)c1ccc2nc(-c3ccccc3)c(-c3ccccc3)nc2c1 | >300 | > 300 | > 300 |
| O=C(Nc1ccc2nccnc2c1)c1ccc(Br)o1 | >300 | > 300 | > 300 |
| CCCCCCCCCCCCCCCC(=O)Nc1ccc2nc(C)c(C)nc2c1 | >300 | > 300 | > 300 |
| CCCCCNc1ccc2nccnc2c1 | >300 | 46.3 | 243 |
| Nc1nc(N)nc(Nc2ccc([As]3SCC(CO)S3)cc2)n1 (stereo not given) [MELARSOPROL] | 0.1 |  |  |
| Cc1ncc([N+](=O)[O-])n1CCO [METRONIDAZOLE] |  |  | 5.8 |
| CCCCCCCCCCCCCCCCOP(=O)([O-])OCC[N+](C)(C)C [MILTEFOSINE] |  | 7.3 |  |
